Experimental data from US8361964B2, “Growth hormone releasing factor (GRF) analogs and uses thereof” (Theratechnologies Inc., priority 2011, dated 2013).
Where a SMILES comes first, the peptide text is derived from it.

Legend:
Growth Hormone secretion [1] = experiment: Growth Hormone secretion in female rats after subcutaneous GRF analog; format: in vivo; details: female Sprague-Dawley rats; 10 μg/rat subcutaneous; plasma 0-60 minutes
From the text: (§1) Sprague-Dawley rats (female, weighting from 250 to 300 g) were obtained from Charles River Inc. Animals were used according to a protocol of the Animal Care Committee along with the principles of the Guide for the Care and Use of Experimental Animals of the Canadian Council on Animal Care. The animals were maintained on standard laboratory chow under a 12:12 light:dark cycle. They were kept in groups of 4 rats per cage.
The animals were anesthetized with isoflurane 2.5%. A mid-section opening was made in the neck to expose the carotid artery. The carotid artery was canulated with polypropylene tubing (PE-50) to allow blood withdrawal. After surgical preparation, rats received a subcutaneous injection of GRF analog (10 μg/rat dissolved in 20 mM AcONa+5% mannitol at pH 5). For pharmacodynamics studies, blood samples (400 μL) were collected from 4 to 8 animals per group per time point. Blood samples (400 μl) were collected via the carotid catheter at 0, 10, 20, 30, 45 and 60 minutes after drug injection. Blood was placed into microtainer pre-treated with K3EDTA and immediately centrifuged at 13,000 RPM in a desktop centrifuge for 2 minutes. The plasma was collected and placed into a screw cap Eppendorf™ and quick frozen in liquid nitrogen. The samples were then kept at −80° C. until assayed. Determination of GH levels was performed as described below.
(§2) Rat and mouse plasma samples were vortexed carefully and centrifuged at 9,000 RPM for 2 min at 4° C. The dosage of GH levels was performed using the Rat/Mouse Growth Hormone ELISA kit from Millipore (Cat. # EZRMGH-45K). Sample supernatants were first diluted 20-fold with the GH ELISA assay buffer, and 10 μl of this dilution was added to the ELISA plate with 90 μl of GH EIA assay buffer. The remaining of the procedure was performed according to the manufacturer's instructions, and the data obtained were analyzed using GraphPad Prism™ software.
(§3) The GRF analogs described herein were tested for their ability to induce GH release in female mice and rats. […] The data are presented in Tables III (mice) and IV-V (rats).

Growth Hormone secretion [2] = experiment: Growth Hormone secretion in female mice after subcutaneous GRF analog; format: in vivo; details: female CD-1 mice; 10 μg/mouse subcutaneous; plasma 10 minutes after injection
From the text: as §1, with “CD-1 mice” for “Sprague-Dawley rats”, “20” for “250”, “25” for “300”, “mice” for “rats”
At the day of the experiment, mice received a subcutaneous injection of GRF analog (10 μg/mouse dissolved in 20 mM sodium acetate (AcONa)+5% mannitol at pH 5). 10 minutes after injection, the mice were anesthezied with isolufrane. Blood samples (500 μl) were obtained by intra-cardiac puncture. Blood was placed into microtainer pre-treated with K3EDTA and immediately centrifuged at 13,000 RPM in a desktop centrifuge for 2 minutes. The plasma was collected and placed into a screwcap Eppendorf™ tube and quick frozen in liquid nitrogen. The samples were then kept at −80° C. until assayed. Determination of GH levels was performed as described below.
as §2, §3

Row | SMILES | Mean AUC (GH Area Under the curve, GH concentration over time) (Growth Hormone secretion [1]) | Mean Cmax (ng/ml) of Growth Hormone secretion (Growth Hormone secretion [1]) [ng/mL] | GH levels 10 min (Growth Hormone secretion [2]) [ng/mL]
1 | CC/C=C/CC(=O)N[C@@H](Cc1ccc(O)cc1)C(=O)N[C@@H](C)C(=O)N[C@@H](CC(=O)O)C(=O)N[C@@H](C)C(=O)N[C@H](C(=O)N[C@@H](Cc1ccccc1)C(=O)N[C@H](C(=O)N[C@@H](CC(=O)O)C(=O)N[C@@H](CO)C(=O)N[C@@H](Cc1ccc(O)cc1)C(=O)N[C@@H](CCCNC(=N)N)C(=O)N[C@@H](CCCCN)C(=O)N[C@H](C(=O)N[C@@H](CC(C)C)C(=O)N[C@@H](C)C(=O)N[C@@H](CCC(N)=O)C(=O)N[C@@H](CC(C)C)C(=O)N[C@@H](CO)C(=O)N[C@@H](C)C(=O)N[C@@H](CCCNC(=N)N)C(=O)N[C@@H](CCC(N)=O)C(=O)N[C@@H](CC(=O)O)C(=O)N[C@H](C(=O)N[C@@H](CC(C)C)C(=O)N[C@@H](CO)C(=O)N[C@H](CCCNC(=N)N)C(N)=O)[C@@H](C)CC)C(C)C)[C@@H](C)O)[C@@H](C)CC [SEQ ID NO: 46, Trans-3-hexenoyl-YADAIFTDSYRKVLAQLSARQDILS-r-NH2] (HELM PEPTIDE1{[CC/C=C/CC(=O)[*:2]].Y.A.D.A.I.F.T.D.S.Y.R.K.V.L.A.Q.L.S.A.R.Q.D.I.L.S.[dR].[am]}$$$$V2.0) | 1453 | 57.3 | 10.6
2 | CC/C=C/CC(=O)N[C@@H](Cc1ccc(O)cc1)C(=O)N[C@@H](C)C(=O)N[C@@H](CC(=O)O)C(=O)N[C@@H](C)C(=O)N[C@H](C(=O)N[C@@H](Cc1ccccc1)C(=O)N[C@H](C(=O)N[C@@H](CC(=O)O)C(=O)N[C@@H](CO)C(=O)N[C@@H](Cc1ccc(O)cc1)C(=O)N[C@@H](CCCNC(=N)N)C(=O)N[C@@H](CCCCN)C(=O)N[C@H](C(=O)N[C@@H](CC(C)C)C(=O)N[C@@H](C)C(=O)N[C@@H](CCC(N)=O)C(=O)N[C@@H](CC(C)C)C(=O)N[C@@H](CCCCN)C(=O)N[C@@H](C)C(=O)N[C@@H](CCCNC(=N)N)C(=O)N[C@@H](CCC(N)=O)C(=O)N[C@@H](CC(=O)O)C(=O)N[C@H](C(=O)N[C@@H](CC(C)C)C(=O)N[C@@H](C)C(=O)N[C@@H](CCCNC(=N)N)C(=O)N[C@@H](C)C(=O)N[C@@H](C)C(=O)N[C@@H](CCCNC(=N)N)C(N)=O)[C@@H](C)CC)C(C)C)[C@@H](C)O)[C@@H](C)CC [SEQ ID NO: 26, Trans-3-hexenoyl-YADAIFTDSYRKVLAQLKARQDILARAAR-NH2] (HELM PEPTIDE1{[CC/C=C/CC(=O)[*:2]].Y.A.D.A.I.F.T.D.S.Y.R.K.V.L.A.Q.L.K.A.R.Q.D.I.L.A.R.A.A.R.[am]}$$$$V2.0) | 8880 | 468.1 | 484.6
3 | CC[C@H](C)[C@H](NC(=O)[C@H](C)NC(=O)[C@H](CC(=O)O)NC(=O)[C@@H](C)NC(=O)[C@@H](N)Cc1ccc(O)cc1)C(=O)N[C@@H](Cc1ccccc1)C(=O)N[C@H](C(=O)N[C@@H](CC(=O)O)C(=O)N[C@@H](CO)C(=O)N[C@@H](Cc1ccc(O)cc1)C(=O)N[C@@H](CCCNC(=N)N)C(=O)N[C@@H](CCCCN)C(=O)N[C@H](C(=O)N[C@@H](CC(C)C)C(=O)N[C@@H](C)C(=O)N[C@@H](CCC(N)=O)C(=O)N[C@@H](CC(C)C)C(=O)N[C@@H](CCCCN)C(=O)N[C@@H](C)C(=O)N[C@@H](CCCNC(=N)N)C(=O)N[C@@H](CCC(N)=O)C(=O)N[C@@H](CC(=O)O)C(=O)N[C@H](C(=O)N[C@@H](CC(C)C)C(=O)NC(C)(C)C(=O)N[C@@H](CCCNC(=N)N)C(N)=O)[C@@H](C)CC)C(C)C)[C@@H](C)O [SEQ ID NO: 22, Y-a-DAIFTDSYRKVLAQLKARQDIL-aib-R-NH2] (HELM PEPTIDE1{Y.[dA].D.A.I.F.T.D.S.Y.R.K.V.L.A.Q.L.K.A.R.Q.D.I.L.[Aib].R.[am]}$$$$V2.0) |  |  | 249.1
